The target in the test is T1, human Keap1 kelch domain (amino acids Ala321-Thr609) (Homo sapiens, UniProt Q14145).
T1 construct: human Keap1 kelch domain (amino acids Ala321-Thr609)
As to the kind of experiment: Keap1-Nrf2 peptide binding assay (fluorescence polarisation). The following applies: binding to fluorescently labeled human Nrf2 peptide, 20 nM Keap1 kelch domain, 50 nM peptide. The protocol: Keap1-Nrf2 peptide binding assay
Two microliters of test compound in reaction buffer (phosphate-buffered saline, 2 mM DL-dithiothreitol, 0.015 % (v/v) Brij-35) containing 6 % (v/v) DMSO were mixed with two microliters of the Keap1 kelch domain in reaction buffer in a black 384-well small volume microtiter plate and incubated at ambient temperature for 15 minutes. Thereafter, two microliters were added of the fluorescently labeled Nrf2 peptide in reaction buffer, and the mixture was incubated for a further 30 minutes at ambient temperature. Final concentrations of the Keap1 kelch domain and the fluorescently labeled Nrf2 peptide were 20 nM and 50 nM, respectively.
Fluorescence polarization (FP) was measured at excitation and emission wavelengths of 635 nm and 660 nm, respectively. Positive controls for binding (two microliters of reaction buffer containing 6 % (v/v) DMSO instead of test compound in the same buffer) and negative controls (as positive controls, but without Keap1 kelch domain) were included on each microtiter plate.

Read-outs that look alike come from different tables or passages of the source.

T1 sequence (Q14145 321-609): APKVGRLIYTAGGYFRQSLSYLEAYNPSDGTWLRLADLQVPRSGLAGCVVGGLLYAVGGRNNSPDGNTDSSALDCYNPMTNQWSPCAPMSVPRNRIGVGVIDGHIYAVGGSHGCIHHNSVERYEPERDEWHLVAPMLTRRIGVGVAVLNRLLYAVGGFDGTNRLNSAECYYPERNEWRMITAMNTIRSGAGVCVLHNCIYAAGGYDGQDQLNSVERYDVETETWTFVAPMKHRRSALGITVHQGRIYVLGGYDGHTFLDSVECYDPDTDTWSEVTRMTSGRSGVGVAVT

As a reminder, the IC50 is the concentration that gives 50% inhibition. With `Cc1c(S(=O)(=O)Nc2ccc(N3CC[C@@H](C(=O)O)C3)c3ccccc23)sc2cccc(F)c12` [Example 60, (3R)-1-[4-[(4-fluoro-3-methyl-benzothiophen-2-yl)sulfonylamino]-1-naphthyl]pyrrolidine-3-carboxylic acid], the IC50 (read-out: IC50) is 130 nM.
Still for that read-out and setting: the figure for `CCCCCCCCn1nc(C)c(S(=O)(=O)Nc2ccc(N3CC[C@@H](C(=O)O)C3)c3ccccc23)c1C` [Example 65, (3R)-1-[4-[(3,5-dimethyl-1-octyl-pyrazol-4-yl)sulfonylamino]-1-naphthyl]pyrrolidine-3-carboxylic acid] is 190 nM; for `O=C(O)[C@@H]1CCN(c2ccc(NS(=O)(=O)c3cc(Cl)cc(Cl)c3)c3ccccc23)C1` [Example 33, (3R)-1-[4-[(3,5-dichlorophenyl)sulfonylamino]-1-naphthyl]pyrrolidine-3-carboxylic acid] it is 1700 nM.
Turning to `O=C(O)[C@H]1CCN(c2ccc(NS(=O)(=O)c3cc(Cl)ccc3Cl)c3ccccc23)C1` [Example 28, (3S)-1-[4-[(2,5-dichlorophenyl)sulfonylamino]-1-naphthyl]pyrrolidine-3-carboxylic acid], the IC50 was 5800 nM.
On the same count and under the same terms, the figure for `Cc1nn(C)c(C)c1S(=O)(=O)Nc1ccc(N2CC[C@H](C(=O)O)C2)c2ccccc12` [Example 22, (3S)-1-[4-[(1,3,5-trimethylpyrazol-4-yl)sulfonylamino]-1-naphthyl]pyrrolidine-3-carboxylic acid] is 4500 nM.
Same read-out and setting: next, `O=C(O)[C@@H]1CCN(c2ccc(NS(=O)(=O)c3cc(Cl)ccc3Cl)c3ccccc23)C1` [Example 48, (3R)-1-[4-[(2,5-dichlorophenyl)sulfonylamino]-1-naphthyl]pyrrolidine-3-carboxylic acid]: 2500 nM.
With `COc1ccc(F)c(S(=O)(=O)Nc2ccc(N3CC[C@H](C(=O)O)C3)c3ccccc23)c1` [Example 27, (3S)-1-[4-[(2-fluoro-5-methoxyphenyl)sulfonylamino]-1-naphthyl]pyrrolidine-3-carboxylic acid], where the note is “read-out: IC50”, the half-maximal inhibitory concentration (IC50) was 7100 nM.
`Cc1nn(C)c(Cl)c1S(=O)(=O)Nc1ccc(N2CC[C@@H](C(=O)O)C2)c2ncccc12` [Example 52, (3R)-1-[5-[(5-chloro-1,3-dimethyl-pyrazol-4-yl)sulfonylamino]-8-quinolyl]pyrrolidine-3-carboxylic acid] came in with an IC50 of 2700 nM.
On the same count and under the same terms, the figure for `CCCn1ncc(S(=O)(=O)Nc2ccc(N3CC[C@@H](C(=O)O)C3)c3ccccc23)c1C` [Example 54, (3R)-1-[4-[(5-methyl-1-propyl-pyrazol-4-yl)sulfonylamino]-1-naphthyl]pyrrolidine-3-carboxylic acid] is 1800 nM.
With `O=C(O)[C@@H]1CCN(c2ccc(NS(=O)(=O)c3cccc(Cl)c3Cl)c3ccccc23)C1` [Example 35, (3R)-1-[4-[(2,3-dichlorophenyl)sulfonylamino]-1-naphthyl]pyrrolidine-3-carboxylic acid], the concentration for half-maximal inhibition (IC50) (read-out: IC50) was 1800 nM.
The same measure, in the same setting: the figure for `Cc1cc(C)c(C)c(S(=O)(=O)Nc2ccc(C3CCCC3C(=O)O)c3ccccc23)c1C` (stereo not shown) [Example 1, 2-[4-[(2,3,5,6-tetramethylphenyl)sulfonylamino]-1-naphthyl]cyclopentanecarboxylic acid] is 3100 nM.
On to `Cc1nn(C)c(C)c1S(=O)(=O)Nc1ccc(N2CC[C@@H](C(=O)O)C2)c2ccccc12` [Example 38, (3R)-1-[4-[(1,3,5-trimethylpyrazol-4-yl)sulfonylamino]-1-naphthyl]pyrrolidine-3-carboxylic acid], for which the IC50 amounted to 900 nM.
Consider `Cc1cc(C)c(C)c(S(=O)(=O)Nc2ccc(N3CCCC(C(=O)O)C3)c3ccccc23)c1C` (stereo not shown) [Example 5, 1-[4-[(2,3,5,6-tetramethylphenyl)sulfonylamino]-1-naphthyl]piperidine-3-carboxylic acid; 2,2,2-trifluoroacetic acid], for which the concentration for half-maximal inhibition (IC50) (read-out: IC50) was 500 nM.
On the same count and under the same terms, the figure for `Cc1cc(C)c(C)c(S(=O)(=O)Nc2ccc(N3CCC[C@H](C(=O)O)C3)c3ccccc23)c1C` [Example 59, (3S)-1-[4-[(2,3,5,6-tetramethylphenyl)sulfonylamino]-1-naphthyl]piperidine-3-carboxylic acid] is 500 nM; for `Cc1cc(C)c(C)c(S(=O)(=O)Nc2ccc(N3CCC[C@@H](C(=O)O)C3)c3ccccc23)c1C` [Example 58, (3R)-1-[4-[(2,3,5,6-tetramethylphenyl)sulfonylamino]-1-naphthyl]piperidine-3-carboxylic acid] it is 270 nM.
The molecule `Cc1ccc(Cl)cc1S(=O)(=O)Nc1ccc(N2CC[C@@H](C(=O)O)C2)c2ccccc12` [Example 43, (3R)-1-[4-[(5-chloro-2-methylphenyl)sulfonylamino]-1-naphthyl]pyrrolidine-3-carboxylic acid] displayed an IC50 of 1200 nM.
On to `Cc1c(S(=O)(=O)Nc2ccc(N3CC[C@@H](C(=O)O)C3)c3ccccc23)cnn1-c1ccccc1` [Example 39, (3R)-1-[4-[(5-methyl-1-phenyl-pyrazol-4-yl)sulfonylamino]-1-naphthyl]pyrrolidine-3-carboxylic acid], for which the IC50 (read-out: IC50) amounted to 6500 nM.
Still for that read-out and setting: the figure for `CCCCn1cc(S(=O)(=O)Nc2ccc(N3CC[C@@H](C(=O)O)C3)c3ccccc23)c(C)n1` [Example 13, (3R)-1-[4-[(1-butyl-3-methyl-pyrazol-4-yl)sulfonylamino]-1-naphthyl]pyrrolidine-3-carboxylic acid] is 2300 nM; for `Cn1ccc2c(S(=O)(=O)Nc3ccc(N4CC[C@@H](C(=O)O)C4)c4ccccc34)cccc21` [Example 64, (3R)-1-[4-[(1-methylindol-4-yl)sulfonylamino]-1-naphthyl]pyrrolidine-3-carboxylic acid] it is 500 nM.
Take `Cc1nn(C)c(Cl)c1S(=O)(=O)Nc1ccc(N2CCC(C(=O)O)C2)c2ccccc12` (stereo not shown) [Example 4, 1-[4-[(5-chloro-1,3-dimethyl-pyrazol-4-yl)sulfonylamino]-1-naphthyl]pyrrolidine-3-carboxylic acid]: the IC50 (read-out: IC50) was determined as 1200 nM.
Consider `Cc1nn(-c2ccccc2)c(C)c1S(=O)(=O)Nc1ccc(N2CC[C@H](C(=O)O)C2)c2ccccc12` [Example 25, (3S)-1-[4-[(3,5-dimethyl-1-phenyl-pyrazol-4-yl)sulfonylamino]-1-naphthyl]pyrrolidine-3-carboxylic acid], for which the IC50 was 4100 nM.
`CCCCn1cc(S(=O)(=O)Nc2ccc(N3CC[C@H](C(=O)O)C3)c3ccccc23)c(C)n1` [Example 11, (3S)-1-[4-[(1-butyl-3-methyl-pyrazol-4-yl)sulfonylamino]-1-naphthyl]pyrrolidine-3-carboxylic acid]: where the note is “read-out: IC50”, the IC50 was 5000 nM.
Still for that read-out and setting: the figure for `Cc1c(S(=O)(=O)Nc2ccc(N3CC[C@@H](C(=O)O)C3)c3ccccc23)c2ccccc2n1C` [Example 63, (3R)-1-[4-[(1,2-dimethylindol-3-yl)sulfonylamino]-1-naphthyl]pyrrolidine-3-carboxylic acid] is 260 nM.
In turn, `COc1ccc(S(=O)(=O)Nc2ccc(N3CC[C@@H](C(=O)O)C3)c3ccccc23)c(OC)c1` [Example 47, (3R)-1-[4-[(2,4-dimethoxyphenyl)sulfonylamino]-1-naphthyl]pyrrolidine-3-carboxylic acid] came in with an IC50 of 6100 nM.
Regarding `Cc1c(S(=O)(=O)Nc2ccc(N3CC[C@@H](C(=O)O)C3)c3ncccc23)sc2ccc(Cl)cc12` [Example 72, (3R)-1-[5-[(5-chloro-3-methyl-benzothiophen-2-yl)sulfonylamino]-8-quinolyl]pyrrolidine-3-carboxylic acid], for the setting “read-out: IC50”, the IC50 is 400 nM.
Still for that read-out and setting: next, `Cc1cc(C)c(C)c(S(=O)(=O)Nc2ccc(N3CCC(C)(C(=O)O)C3)c3ccccc23)c1C` (stereo not shown) [Example 9, 3-methyl-1-[4-[(2,3,5,6-tetramethylphenyl)sulfonylamino]-1-naphthyl]pyrrolidine-3-carboxylic acid]: 800 nM.
As to `O=C(O)[C@H]1CCN(c2ccc(NS(=O)(=O)c3ccc(Cl)c(C(F)(F)F)c3)c3ccccc23)C1` [Example 23, (3S)-1-[4-[[4-chloro-3-(trifluoromethyl)phenyl]sulfonylamino]-1-naphthyl]pyrrolidine-3-carboxylic acid], the IC50 was determined as 8500 nM.
Same read-out and setting: next, `Cc1cc(C)c(C)c(S(=O)(=O)Nc2ccc(N3CCCC(C(=O)O)C3)c3ncccc23)c1C` (stereo not shown) [Example 15, 1-[5-[(2,3,5,6-tetramethylphenyl)sulfonylamino]-8-quinolyl]piperidine-3-carboxylic acid; 2,2,2-trifluoroacetic acid]: 24000 nM; `Cc1ccc(Cl)cc1S(=O)(=O)Nc1ccc(N2CC[C@H](C(=O)O)C2)c2ccccc12` [Example 26, (3S)-1-[4-[(5-chloro-2-methylphenyl)sulfonylamino]-1-naphthyl]pyrrolidine-3-carboxylic acid]: 8100 nM.
As for `O=C(O)[C@H]1CCN(c2ccc(NS(=O)(=O)c3ccc(Cl)cc3Cl)c3ccccc23)C1` [Example 19, (3S)-1-[4-[(2,4-dichlorophenyl)sulfonylamino]-1-naphthyl]pyrrolidine-3-carboxylic acid], for the setting “read-out: IC50”, the half-maximal inhibitory concentration (IC50) worked out at 6200 nM.
Still for that read-out and setting: next, `CC(=O)Nc1nc(C)c(S(=O)(=O)Nc2ccc(N3CC[C@@H](C(=O)O)C3)c3ccccc23)s1` [Example 31, (3R)-1-[4-[(2-acetamido-4-methyl-thiazol-5-yl)sulfonylamino]-1-naphthyl]pyrrolidine-3-carboxylic acid]: 1900 nM.

Source of the values: patent EP2997966A1, “Naphthyl Sulfonamide Pyrrolidine Derivatives as KEAP-1 Modulators for the Treatment of Diabetes, Obesity, Dyslipidemia and Related Disorders” (SANOFI, priority 2014, dated 2016).
